Several values for one entry are separate records, joined by “and”; a condition that tells them apart may be missing. Equal entries are not always repeated.
Legend:
[1] = molecular target: T1, human α5β1 integrin (Homo sapiens, UniProt P05556+P08648); assay: AFM force measurement: unbinding of tip-tethered affinity molecule from integrin immobilized on mica; type: binding
T1 construct: purchased YO Proteins AB (Sweden)
Description: (§1) The attachment chemistry was validated using the functionalized SiN tips to measure forces of affinity molecules unbinding from their respective protein cognates. The protein sample was immobilized on APS-modified mica substrate using glutaraldehyde as a crosslinker (for procedure, see Wang, et al. Biophys. J. 2002, 83, 3619-3625). Initially, about 1000 force-distance curves were collected from each of measurement experiments with either D-1b against thrombin or P-1b against integrin α5β1. The solid lines in Panel A and D of FIG. 14 show exemplary retracting force-distance curves used for data analysis, which accounts for more than one fourth of the collections. The selection was based on an assumption that a rupture directly related to unbinding of an affinity molecule from its protein cognate is likely to take place around the distance corresponding to the stretched length of a PEG linker (˜13.5 nm in this instance). A distance histogram was created from each data set (Panel B and E of FIG. 14). […] Ratios of the rupture events between these two regions were 1:1.2 for the TBA tip against the thrombin protein and 1:1.3 for the RGD tip against the integrin protein respectively. After finishing the initial measurements, a thrombin or integrin solution was injected to the flow cell accordingly, and then another set of force curves were collected to determine the specificity of unbinding (see, for example, Lee, et al. Micron 2007, 38, 446-461). A disappearance of the specific unbinding ruptures from the force-distance curves was anticipated because the interactions of the affinity molecule tethered to the tip with its cognates on the substrate were blocked by protein from the solution. In fact, force-distance curves were obtained appearing like the dotted lines in Panel A and D of FIG. 14. Overall, the ruptures around the longer distances were reduced to a great extent and those around the shorter distances remained (Panel C and F of FIG. 14) in comparison with those prior to blocking. The rupture ratios between these two regions were changed to 12.3:1 for the TBA tip against the thrombin modified surface and 12:1 for the RGD tip against the integrin modified surface.
(§2) AFM tips (a batch of four or five) were first immersed in ethanol for five minutes, dried with ultrapure argon, and then treated with ultraviolet-ozone in a Boekel UV cleaner for 15 minutes and oxygen plasma (medium power) in a Harrick Plasma Cleaner for 2 minutes. These tips were immediately placed in a petri dish, to which an aqueous solution of compound 3 (50 mM) was added. After one hour, the tips were taken out, rinsed with water thrice, and dried gently with nitrogen. […]

[2] = molecular target: bovine serum albumin (BSA) (Bos taurus, UniProt P02769); assay: AFM force measurement: non-specific interaction with BSA immobilized mica; type: binding; conditions: BSA on the substrate (non-specific control)
Description: (§3) Non-specific interactions between functionalized AFM tips with both bare and bovine serum albumin (BSA) immobilized mica substrates were examined. The functionalized AFM tips generally formed featureless force-distance curves on these surfaces. Only 6.1% of collected curves show unbinding ruptures from the nonspecific TBA-BSA interaction (median force 14.4 pN) and 5.6% from the nonspecific RGD-BSA interaction (median force 15.3 pN) around the expected distance, respectively. The functionalized tips interacted with the bare mica surfaces with even lower statistics and smaller unbinding forces.
Freshly cleaved mica sheets (1.5×2.0 cm^2) were immersed in an aqueous solution of APS (50 mM). After one hour, the mica sheets were taken out and rinsed thoroughly with water thrice. In a humid surrounding, an aqueous solution of glutaraldehyde (1 mM, 200 μL) was added on the APS mica sheet. After 10 minutes, the mica substrates were rinsed with water thrice, and then a solution of protein in a 1×PBS buffer (3 μL) was placed on it, incubated for one hour, and rinsed with the 1×PBS buffer thrice. In general, protein concentrations were made around 10 ng/μL for force measurements and 0.05 ng/μL for recognition imaging. It should be noted that integrin we used was a lyophilized product from a solution containing: 0.26 mg/ml α5β1, 20 mM Tris-HCl pH 7.5, 150 mM NaCl, 2 mM MgCl2, 0.2% Triton X-100, which was reconstituted by dissolving it in 1×PBS buffer.
(§4) An Agilent AFM 5500 (with inverted light microscope) system was used for the AFM experiments. Both force measurement and recognition imaging were carried out in 1×PBS buffer (pH 7.4). For force measurements, Veeco probes (Bicker, SiN tips) were used, having a force constant 0.05 N/m and a gold back coating, and the loading rate was 25000 pN/s.
(§5) Topography images, recognition images and force spectra were recorded using Agilent PicoView software. The force-distance curves were analyzed in PicoView, and the corresponding unbinding forces were plotted in the form of histograms and fitted into the Gaussian function using MathWorks-MATLAB.

[3] = AFM force measurement: non-specific interaction with bare mica; type: binding; conditions: bare mica substrate
Description: as §3, §4, §5

[4] = Stability of linkers, NMR monitoring and storage; type: physicochemical; conditions: for stability by NMR monitoring: pure form and in chloroform, room temperature, at least two days; for storage stability: stored at −78° C. for one year
Description: The molecular anchor (3) was synthesized simply by reacting APS (1) with 2-(cyclooct-2-yn-1-yloxy)acetic acid (2) in the presence of 1-ethyl-3-(3-dimethylaminopropyl)carbodiimide (EDC, FIG. 10). The desired product was separated as a white solid by silica gel chromatography with a yield of 60%. The molecular linker for RI (6a, FIG. 4) was synthesized starting from hexaethylene glycol. First, azido-(CH2CH2O)6-Ts (4, Ts=tosyl) was synthesized in a multi-gram scale (Loiseau, F. A. et al. J. Org. Chem. 2004, 69, 639-647; Svedhem, S.; et al. J. Org. Chem. 2001, 66, 4494-4503). The azido-(CH2CH2O)12—OH (5) was prepared in a 71% yield by reacting 4 with sodium hexaethylene glycoxide (3 times excess) that was generated in situ by treating hexaethylene glycol with sodium hydride. In presence of potassium t-butoxide, 5 reacted with divinyl sulfone to furnish the desired product 6a in a yield of 64%. In the same manner, the linker azido-(CH2CH2O)36-vinyl sulfone (6b) was synthesized by reacting azido-dPEG®—alcohol with divinyl sulfone in a yield close to that of 6a (FIG. 5). These two products were characterized with FTIR, NMR, and mass spectroscopy. Although vinyl sulfones may react with azides in presence of CuSO4 and sodium ascorbate, it was determined by NMR monitoring that 6a and 6b were stable both in its pure form and in chloroform at room temperature at least for two days. […] Maleimide is another reactive group that is functionally similar to vinyl sulfone in bioconjugation, but it may be less amenable to coexisting with azide because a [3+2]cycloaddition could spontaneously take place between these two functions in some circumstances. In addition, maleimide can undergo the thiol exchanges and ring hydrolysis (above pH 8), which may complicate outcomes of the conjugating reaction. Thus, vinyl sulfone was chosen as a Michael addition receptor of thiols in this attachment chemistry.

[5] = Water contact angle of derivatized silicon oxide surfaces; type: physicochemical; conditions: water on derivatized silicon oxide surface
Experimental: (§6) A silicon substrate (1×1 cm2) was cleaned thoroughly with ethanol, dried by nitrogen, and then treated with oxygen plasma for two minutes using Harrick Plasma Cleaner (medium power). APTES was deposited on the substrate using a vapor deposition method (H. Wang, et al. Biophys. J., 2002, 83, 3619-3625). The aminated substrate was immersed in a solution of compound 2 (1 mg/mL). NHS/EDC (1 mg each) and triethyl amine (5 μL) in dry dicholoromethane. After three hours, the substrates were taken out and rinsed with dry dichloromethane (twice) followed by ethanol (twice) and dried with argon.
(§7) A silicon substrate (1×1 cm2) was cleaned as described with respect to reactions 1-a nd 1-b, and then immersed in an aq. solution of silatrane derivative 3 (50 mM). After one hour, the substrates were taken out and rinsed five times with deionized water and dried with argon.
(§8) Contact angles were measured using Kruss EasyDrop. For the measurement, 2 μL of water droplets were deposited on different positions of a substrate placed on the sample plate and contact angles were measured in the video window of manufacturer's DSA software. Thicknesses of the monolayers were measured using Gaertner Scientific Corporation ellipsometer. For the thickness calculation, the refractive indices of both silicon oxide layers and organic layers were assumed to be 1.46 (T. Nguyen et al. J. Adhesion, 1995, 48, 169-194). Five different arbitrary positions on the substrate were chosen and the average value was taken. The thickness of the monolayer was determined by subtracting the silicon oxide thickness from the measured one.

[6] = Ellipsometric thickness of monolayers on silicon oxide; type: physicochemical; conditions: organic layer on silicon oxide, ellipsometry
Experimental: as §6, §7, §8

[7] = molecular target: T2, human α-thrombin (Homo sapiens, UniProt P00734); assay: AFM force measurement: unbinding of tip-tethered affinity molecule from thrombin immobilized on mica; type: binding
T2 construct: protein cognates human α-thrombin and human α5β1-integrin immobilized on mica surfaces; purchased Abeam (so in the source)
Description: as §1, §2

[8] = tip blocked with integrin solution, integrin on mica
[9] = tip blocked with thrombin solution, thrombin on mica

Sequence of bovine serum albumin (BSA) (P02769 25-607): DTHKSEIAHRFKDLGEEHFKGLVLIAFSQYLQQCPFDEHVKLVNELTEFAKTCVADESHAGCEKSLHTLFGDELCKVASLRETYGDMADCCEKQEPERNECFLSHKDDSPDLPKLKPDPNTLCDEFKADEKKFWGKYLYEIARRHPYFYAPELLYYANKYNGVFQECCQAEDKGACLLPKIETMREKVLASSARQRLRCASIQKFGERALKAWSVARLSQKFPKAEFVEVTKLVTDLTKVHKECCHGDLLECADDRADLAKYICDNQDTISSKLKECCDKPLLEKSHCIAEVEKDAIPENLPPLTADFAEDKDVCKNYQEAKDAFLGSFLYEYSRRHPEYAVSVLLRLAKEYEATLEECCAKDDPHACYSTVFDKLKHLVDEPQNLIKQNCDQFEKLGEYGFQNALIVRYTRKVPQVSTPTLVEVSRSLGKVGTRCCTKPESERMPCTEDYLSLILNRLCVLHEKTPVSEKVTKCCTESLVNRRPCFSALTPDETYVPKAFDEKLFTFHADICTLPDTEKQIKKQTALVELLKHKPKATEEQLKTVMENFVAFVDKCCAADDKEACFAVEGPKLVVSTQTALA
T1 sequence (P08648 42-894 limits assumed): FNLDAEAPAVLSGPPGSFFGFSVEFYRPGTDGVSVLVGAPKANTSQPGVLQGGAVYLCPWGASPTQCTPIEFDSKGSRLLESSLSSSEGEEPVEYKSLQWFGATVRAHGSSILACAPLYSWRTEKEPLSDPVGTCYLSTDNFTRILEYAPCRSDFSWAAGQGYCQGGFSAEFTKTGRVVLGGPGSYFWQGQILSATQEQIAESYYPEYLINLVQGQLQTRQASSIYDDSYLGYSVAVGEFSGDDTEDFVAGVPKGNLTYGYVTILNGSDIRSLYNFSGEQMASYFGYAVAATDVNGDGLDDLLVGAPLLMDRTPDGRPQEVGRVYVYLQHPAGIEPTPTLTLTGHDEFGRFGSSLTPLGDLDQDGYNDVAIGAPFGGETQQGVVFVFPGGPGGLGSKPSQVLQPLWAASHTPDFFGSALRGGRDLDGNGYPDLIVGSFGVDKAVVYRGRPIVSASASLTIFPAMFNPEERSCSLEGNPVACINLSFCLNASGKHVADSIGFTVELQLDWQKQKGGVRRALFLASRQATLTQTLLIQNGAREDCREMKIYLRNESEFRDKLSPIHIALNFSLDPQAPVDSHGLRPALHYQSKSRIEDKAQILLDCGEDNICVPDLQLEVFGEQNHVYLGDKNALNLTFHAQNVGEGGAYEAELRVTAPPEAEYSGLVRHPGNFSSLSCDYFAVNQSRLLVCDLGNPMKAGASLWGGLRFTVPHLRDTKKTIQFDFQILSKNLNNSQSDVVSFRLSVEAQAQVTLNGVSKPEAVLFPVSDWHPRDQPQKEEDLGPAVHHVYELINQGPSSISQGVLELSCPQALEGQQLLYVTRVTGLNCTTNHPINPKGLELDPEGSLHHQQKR
T1 sequence (P08648 895-1049 partner limits assumed): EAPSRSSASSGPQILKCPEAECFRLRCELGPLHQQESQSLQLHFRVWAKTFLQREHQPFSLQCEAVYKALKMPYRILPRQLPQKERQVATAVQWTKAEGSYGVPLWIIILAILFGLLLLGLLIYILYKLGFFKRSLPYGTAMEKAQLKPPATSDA
T1 sequence (P05556 21-798): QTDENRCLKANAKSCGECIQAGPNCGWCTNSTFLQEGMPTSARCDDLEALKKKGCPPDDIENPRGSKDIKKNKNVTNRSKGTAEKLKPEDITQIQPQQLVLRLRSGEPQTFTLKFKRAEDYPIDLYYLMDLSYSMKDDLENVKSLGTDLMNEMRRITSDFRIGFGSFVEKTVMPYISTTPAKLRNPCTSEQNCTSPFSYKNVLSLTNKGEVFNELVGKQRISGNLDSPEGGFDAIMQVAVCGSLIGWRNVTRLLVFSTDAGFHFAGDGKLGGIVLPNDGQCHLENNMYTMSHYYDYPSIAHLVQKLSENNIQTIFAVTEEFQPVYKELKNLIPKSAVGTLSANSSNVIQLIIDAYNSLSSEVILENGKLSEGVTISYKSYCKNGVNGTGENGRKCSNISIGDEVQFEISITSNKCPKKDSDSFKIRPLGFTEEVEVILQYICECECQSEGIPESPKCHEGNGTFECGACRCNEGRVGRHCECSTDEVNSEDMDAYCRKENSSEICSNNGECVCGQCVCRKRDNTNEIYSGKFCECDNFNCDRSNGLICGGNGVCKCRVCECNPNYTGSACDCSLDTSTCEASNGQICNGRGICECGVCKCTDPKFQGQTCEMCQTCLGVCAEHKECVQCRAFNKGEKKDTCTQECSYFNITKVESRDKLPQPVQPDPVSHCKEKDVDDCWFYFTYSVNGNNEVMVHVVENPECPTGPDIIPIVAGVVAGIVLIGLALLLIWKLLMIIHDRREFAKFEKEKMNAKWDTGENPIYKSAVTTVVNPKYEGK

With cyclo(RGDfC) the “Unbinding events (%)” value ([1]; functionalized SiN tip against integrin on mica) was 29.4%, the “Unbinding force (pN)” value ([1]; functionalized SiN tip against integrin on mica, Gaussian fit, loading rate 25000 pN/s) was 48.0 ± 27.8 pN and the “Unbinding events (%)” value [1, 8] was 6.7%. The “Unbinding force (pN)” value [1, 8] was 11.1 ± 10.7 pN, the “Unbinding events (%)” value [2] was 5.6% and the “Unbinding force (pN)” value [2] was 15.3 pN and 15.3 ± 14.4 pN. The “Unbinding events (%)” value [3] was 2.5% and the “Unbinding force (pN)” value [3] was 6.7 ± 4.0 pN.

With C=CS(=O)(=O)CCOCCOCCOCCOCCOCCOCCOCCOCCOCCOCCOCCOCCOCCOCCOCCOCCOCCOCCOCCOCCOCCOCCOCCOCCOCCOCCOCCOCCOCCOCCOCCOCCOCCOCCOCCOCCN=[N+]=[N-] [6b, 1-Azido-35-(2-(vinylsulfonyl)ethoxy)-3n105^3-pentatricontaoxaheptahectane] the “stability by NMR monitoring” value [4] was “stable” and the storage stability [4] was “no degradation has been observed”.

With CCO[Si](CCCN)(OCC)OCC [APTES, (3-Arninopropyl)triethoxysilane] the “Contact Angle (°)” value [5] was about 46 ° and the “Thickness (Å)” value [6] was “about 7.3 Å”.

With O=C(COC1C#CCCCCC1)NCCC[Si-]123OCC[N+]1(CCO2)CCO3 (centres unmarked) [compound 3, N-(3-(silatranyl)propyl)-2-(cyclooct-2-yn-1-yloxy)acetamide] the “Contact Angle (°)” value [5] was about 78 ° and the “Thickness (Å)” value [6] was 15.3 Å.

In the case of O=C(O)COC1C#CCCCCC1 (centres unmarked) [compound 2, 2-(cyclooct-2-yn-1-yloxy)acetic acid], the “Contact Angle (°)” value [5] is reported as 76 ° and the “Thickness (Å)” value [6] is reported as about 15.9 Å.

For 5′-GGTTGGTGTGGTTGG [TBA], the “Unbinding force (pN)” value ([7]; functionalized SiN tip against thrombin on mica, Gaussian fit of force histogram, loading rate 25000 pN/s) was 80.2 ± 34.5 pN, the “Unbinding events (%)” value ([7]; functionalized SiN tip against thrombin on mica, ruptures around the specific unbinding distance over total force curves) was 26.5% and the “Unbinding events (%)” value [7, 9] was 7.0%. The “Unbinding force (pN)” value [7, 9] was 15.6 ± 12.9 pN, the “Unbinding events (%)” value [2] was 6.1% and the “Unbinding force (pN)” value [2] was 14.4 pN and 14.4 ± 9.4 pN. For the same compound, the “Unbinding events (%)” value [3] was 3.0% and the “Unbinding force (pN)” value [3] was 6.9 ± 3.8 pN.

With C=CS(=O)(=O)CCOCCOCCOCCOCCOCCOCCOCCOCCOCCOCCOCCOCCN=[N+]=[N-] [6a, 1-Azido-35-(2-(vinylsulfonyl)ethoxy)-3n33^3-undecaoxapentatriacontane] the “stability by NMR monitoring” value [4] was “stable” and the storage stability [4] was “no degradation has been observed”.
